From patent US11292773B2, “Small molecule inhibitors of BCL-2-associated death promoter (BAD) phosphorylation” (NATIONAL UNIVERSITY OF SINGAPORE, priority 2017, dated 2022)

Experiments:
MCF7 cells = test: Annexin V and propidium iodide apoptosis assay (FACS); type: cell-based, human; conditions: about 24 hours, dose dependent manner
Description: Phosphatidylserine exposure and cell death are assessed by FACS analysis using Annexin-V-FLUOS Staining Kit (Life Technologies, Singapore) and PI-stained cells. Briefly, 1×10^5 MCF cells/well (190 μL/well) are seeded in 6-well plates and incubated with different concentrations of NPB for about 24 hours and DMSO treated samples are used as control. Cells are then washed with Annexin V binding buffer (10 mM HEPES/NaOH, pH7.4, 140 mM NaCl, 2.5 mM CaCl2), stained with Annexin V FITC for about 30 minutes at room temperature in the dark, then washed again and re-suspended in Annexin V binding buffer containing PI. Samples are analyzed immediately on a BD FACSAria Cell Sorter (BD Biosciences, San Jose, Calif.).
Loss of membrane integrity and translocation of phosphatidylserine to outer leaflet of plasma membrane are the early events of apoptosis which can be detected using FITC conjugated annexin-V and propidium iodide staining. It is observed that NPB induces apoptosis in MCF7 cells using FITC-annexin V and propidium iodide. On treatment with NPB, increase in both early (PI negative, FITC-Annexin V positive) and late apoptotic cells (PI positive, FITC-Annexin V positive) is observed in a dose dependent manner as shown in FIG. 13A.

[1] = target: T1, hBAD phosphorylation (Ser75, Ser99) (Homo sapiens, UniProt Q92934); test: Western blot of hBAD Ser75 and Ser99 phosphorylation in 25 carcinoma cell lines; type: cell-based; conditions: all tested carcinoma cell lines, NPB 5 μM
T1 construct: endogenous in cells; host or cells: MCF7 (A6); 25 carcinoma cell lines of seven cancer types (A7)
T1 sequence (Q92934 1-168): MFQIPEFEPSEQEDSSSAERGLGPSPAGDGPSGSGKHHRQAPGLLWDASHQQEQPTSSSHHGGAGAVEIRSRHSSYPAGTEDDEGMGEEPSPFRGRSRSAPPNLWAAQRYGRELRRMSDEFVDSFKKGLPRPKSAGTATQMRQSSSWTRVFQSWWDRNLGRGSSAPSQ
Description: (A) WB analysis was used to assess the levels of phosphorylated human BAD (at Ser75 and Ser99) and BAD protein in the range of carcinoma cell lines, including mammary, ovarian, pancreatic, endometrial, hepatocellular, colon and prostate cancer after treatment with NPB (5 μM). Total BAD was used as an input control for cell lysate. (B) WB analysis was used to assess the levels of pBAD (Ser99) and pAKT (Ser473), AKT and BAD in MCF7, Caov-3, Ishikawa, and AsPC-1 cells. 5 μM each of AKT inhibitor (IV) and NPB was used to treat cells. Depletion of AKT expression was achieved using transient-transfection of short hairpin (sh)-RNA (1&2) directed to AKT transcript as described in methodology. β-ACTIN was used as an input control for cell lysate. For WB analysis, soluble whole cell extracts were run on an SDS-PAGE and immunoblotted as described in materials methodology. The sizes of detected protein bands in kDa are shown on the left side. Note: #; non-transformed immortalized-cell line.
We next analyzed the effect of NPB on phosphorylation of hBAD at both Ser75 and Ser99 by western blot analysis in 25 carcinoma cell lines derived seven different types of cancer.

[2] = system: MCF7, BT474, Caov-3, Ishikawa, AsPC-1 and DLD-1 cells; test: NPB exposure with or without siRNA-mediated depletion of BAD (western blot, ApoTox-Glo); type: cell-based, human; conditions: 5 μM NPB
Description: (A) WB analysis was used to assess the levels of pBAD (Ser99) activity and BAD protein in MCF7, BT474, Caov-3, Ishikawa, AsPC-1, and DLD-1 cells after treatment with 5 μM NPB. Depletion of BAD expression was achieved using transient-transfection of small interfering (si)-RNA directed to the BAD transcript. Soluble whole cell extracts were run on an SDS-PAGE and immunoblotted as described in materials and methods. β-ACTIN was used as input control. Effects of NPB (5 μM) in MCF7, BT474, Caov-3, Ishikawa, AsPC-1, and DLD-1 cells. (B) Cell viability and (C) caspase 3/7 activities were evaluated using the ApoTox-GIo™ Triplex Assay Kit. All assays performed as described in methodology. Statistical significance was assessed by an unpaired two-tailed Student's t-test (P<0.05 was considered as significant) using GraphPad Prism5. The column represents mean of triplicate determinations; bars, ±SD. **P<0.001, *P<0.05. Note RFU, relative fluorescence unit; RLU, relative luminescence unit.
To confirm the functional specificity of NPB directed to the BAD protein, we further examined the effect of NPB exposure after siRNA-mediated depletion of BAD expression in 6 carcinoma cell lines (MCF7, BT474, Caov-3, Ishikawa, AsPC-1 and DLD-1). […] As described above, NPB treatment of the control transfected carcinoma cell lines decreased BAD phosphorylation (Ser99) compared to vehicle-treated cells. Concomitantly, exposure of the same carcinoma cell lines to NPB decreased cell viability and increased caspase 3/7 activity compared to vehicle-exposed cells.

[3] = control transfected carcinoma cell lines, vs vehicle

SMILES: O=C(NC1CCCC1)c1cccc(C(c2ccccc2O)N2CCN(c3cccc(Cl)c3Cl)CC2)c1 (stereo not shown) [NPB, N-cyclopentyl-3-((4-(2,3-dichlorophenyl)piperazin-1-yl)(2-hydroxyphenyl)methyl) benzamide]
- early and late apoptotic cells (FITC-Annexin V / PI) (MCF7 cells): increase
- phosphorylation of BAD at the Ser99 site [1]: largely inhibits
- phosphorylation of hBAD at the Ser75 site [1]: no effect
- cell viability and caspase3/7 activity ([2]; carcinoma cell lines with depleted expression of BAD): did not affect
- BAD phosphorylation (Ser99) [2, 3]: decreased
- caspase 3/7 activity [2, 3]: increased
- cell viability [2, 3]: decreased
